18 molecules from patent publication US20230051589A1, “COMPOUNDS AND COMPOSITIONS FOR TREATING CONDITIONS ASSOCIATED WITH NLRP ACTIVITY” (Novartis AG, priority 2018, published 2023) can be followed below.

Like-named read-outs stand apart in the source and are kept apart here.

The test system of this test is IL-1β production in PMA-differentiated THP-1 cells. The test can be described thus: IL-1β production in PMA-differentiated THP-1 cells stimulated with gramicidin (hTHP-1 assay, 2% fetal bovine serum; Procedures 1-3). The note with it: hTHP-1 assay containing 2% fetal bovine serum, gramicidin stimulation, IL-1β readout, read-out: hTHP-1 IC50. In kind it is cell-based, human. Summed up: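 IL-1β released into supernatants was read by HTRF after 2 h gramicidin (5 μM) challenge. Before challenge, compounds (3-fold dilutions, top 100 μM, 0.37% DMSO) were given 1 h on THP-1 cells differentiated with PMA (20 ng/ml, 16-18 h) and held in 2% FBS medium.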

A word on the IC50: it is the concentration that gives 50% inhibition. Regarding `CN1CCCC(c2ccc(S(N)(=O)=NC(=O)Nc3c4c(cc5c3CC5)CCC4)c(F)c2)C1` (single isomer, unassigned) [Example 859, (S, R) or (R, R)-2-fluoro-4-(1-methylpiperidin-3-yl)-N′-((2,4,5,6-tetrahydro-1H-cyclobuta[f]inden-3-yl)carbamoyl)benzenesulfonimidamide], where the note is “Table B3”, the IC50 lay within 1000 to 5000 nM.
Consider `CN1CCCC(c2ccc(S(N)(=O)=NC(=O)Nc3c4c(cc5c3CC5)CCC4)c(F)c2)C1` (single isomer, unassigned) [Example 860, (R, S) or (S, S)-2-fluoro-4-(1-methylpiperidin-3-yl)-N′-((2,4,5,6-tetrahydro-1H-cyclobuta[f]inden-3-yl)carbamoyl)benzenesulfonimidamide], for which the IC50 (Table B3) is above 30000 nM.
Same read-out and setting: the result for `CN1CCCC(c2ccc(S(N)(=O)=NC(=O)Nc3c4c(cc5c3CC5)CCC4)c(F)c2)C1` (single isomer, unassigned) [Example 861, (S, S) or (R, S)-2-fluoro-4-(1-methylpiperidin-3-yl)-N′-((2,4,5,6-tetrahydro-1H-cyclobuta[f]inden-3-yl)carbamoyl)benzenesulfonimidamide] reads above 30000 nM.
Take `CN1CCCC(c2ccc(S(N)(=O)=NC(=O)Nc3c4c(cc5c3CC5)CCC4)c(F)c2)C1` (single isomer, unassigned) [Example 862, (R, R) or (S, R)-2-fluoro-4-(1-methylpiperidin-3-yl)-N′-((2,4,5,6-tetrahydro-1H-cyclobuta[f]inden-3-yl)carbamoyl)benzenesulfonimidamide]: under “Homo sapiens, THP-1, Table B3”, the IC50 lay within 1000 to 5000 nM.
As to `NS(=O)(=NC(=O)Nc1c2c(cc3c1CCC3)CCC2)c1ccc(C2CCN2)cc1` (single isomer, unassigned) [Example 864, (R, S) or (S, S)-4-(azetidin-2-yl)-N′-((1,2,3,5,6,7-hexahydro-5-indacen-4-yl)carbamoyl)benzenesulfonimidamide], for the setting “Table B3”, the IC50 was 5000 to 30000 nM.
As to `NS(=O)(=NC(=O)Nc1c2c(cc3c1CCC3)CCC2)c1ccc(C2CCN2)cc1` (single isomer, unassigned) [Example 865, (S, S) or (R, S)-4-(azetidin-2-yl)-N′-((1,2,3,5,6,7-hexahydro-s-indacen-4-yl)carbamoyl)benzenesulfonimidamide], the 50% inhibitory concentration (IC50) (Table B3) fell in the range of 5000 to 30000 nM.
The same measure, in the same setting: to `CN[C@H](c1ccc(S(N)(=O)=NC(=O)Nc2c3c(cc4c2CC4)CCC3)s1)C1CC1` (single isomer, unassigned) [Example 866, (S, R) or (R, R)-5-(cyclopropyl(methylamino)methyl)-N′-((2,4,5,6-tetrahydro-1H-cyclobuta[f]inden-3-yl)carbamoyl)thiophene-2-sulfonimidamide] belongs 8 to 40 nM; to `CN[C@H](c1ccc(S(N)(=O)=NC(=O)Nc2c3c(cc4c2CC4)CCC3)s1)C1CC1` (single isomer, unassigned) [Example 867, (S, S) or (R, S)-5-(cyclopropyl(methylamino)methyl)-N′-((2,4,5,6-tetrahydro-1H-cyclobuta[f]inden-3-yl)carbamoyl)thiophene-2-sulfonimidamide], 1000 to 5000 nM.
For the molecule `CN[C@H](c1ccc(S(N)(=O)=NC(=O)Nc2c3c(cc4c2CC4)CCC3)s1)C1CC1` (single isomer, unassigned) [Example 868, (R, R) or (S, R)-5-(cyclopropyl(methylamino)methyl)-N′-((2,4,5,6-tetrahydro-1H-cyclobuta[f]inden-3-yl)carbamoyl)thiophene-2-sulfonimidamide], the 50% inhibitory concentration (IC50) (Table B3) was 8 to 40 nM.
As to `CN[C@H](c1ccc(S(N)(=O)=NC(=O)Nc2c3c(cc4c2CC4)CCC3)s1)C1CC1` (single isomer, unassigned) [Example 869, (R, S) or (S, S)-5-(cyclopropyl(methylamino)methyl)-N′-((2,4,5,6-tetrahydro-1H-cyclobuta[f]inden-3-yl)carbamoyl)thiophene-2-sulfonimidamide], the IC50 (Table B3) is 200 to 1000 nM.
As to `CNCc1csc(S(N)(=O)=NC(=O)Nc2c3c(cc4c2CC4)CCC3)c1F` (single isomer, unassigned) [Example 870, (R) or (S) -3-fluoro-4-((methylamino)methyl)-N′-((2,4,5,6-tetrahydro-1H-cyclobuta[f]inden-3-yl)carbamoyl)thiophene-2-sulfonimidamide], the IC50 (Table B3) was in the range of 40 to 200 nM.
Consider `CNCc1csc(S(N)(=O)=NC(=O)Nc2c3c(cc4c2CC4)CCC3)c1F` (single isomer, unassigned) [Example 871, (S) or (R) -3-fluoro-4-((methylamino)methyl)-N′-((2,4,5,6-tetrahydro-1H-cyclobuta[f]inden-3-yl)carbamoyl)thiophene-2-sulfonimidamide], for which the half-maximal inhibitory concentration (IC50) (Table B3) fell in the range of 1000 to 5000 nM.
Same read-out and setting: the result for `NS(=O)(=NC(=O)Nc1c2c(cc3c1CC3)CCC2)c1cc2c(s1)CCN(CC(F)F)C2` (single isomer, unassigned) [Example 872, (R) or (S) -5-(2,2-difluoroethyl)-N′-((2,4,5,6-tetrahydro-1H-cyclobuta[f]inden-3-yl)carbamoyl)-4,5,6,7-tetrahydrothieno[3,2-c]pyridine-2-sulfonimidamide] reads 1000 to 5000 nM; that for `NS(=O)(=NC(=O)Nc1c2c(cc3c1CC3)CCC2)c1cc2c(s1)CCN(CC(F)F)C2` (single isomer, unassigned) [Example 873, (S) or (R) -5-(2,2-difluoroethyl)-N′-((2,4,5,6-tetrahydro-1H-cyclobuta[f]inden-3-yl)carbamoyl)-4,5,6,7-tetrahydrothieno[3,2-c]pyridine-2-sulfonimidamide], above 30000 nM.
Same read-out and setting: the result for `NS(=O)(=NC(=O)Nc1c2c(cc3c1CC3)CCC2)c1cc2c(s1)CCN[C@@H]2C(F)F` (single isomer, unassigned) [Example 874, (R or S,4S)-4-(difluoromethyl)-N′-((2,4,5,6-tetrahydro-1H-cyclobuta[f]inden-3-yl)carbamoyl)-4,5,6,7-tetrahydrothieno[3,2-c]pyridine-2-sulfonimidamide] reads 40 to 200 nM; that for `NS(=O)(=NC(=O)Nc1c2c(cc3c1CC3)CCC2)c1cc2c(s1)CCN[C@@H]2C(F)F` (single isomer, unassigned) [Example 875, (S or R,4S)-4-(difluoromethyl)-N′-((2,4,5,6-tetrahydro-1H-cyclobula[f]inden-3-yl)carbamoyl)-4,5,6,7-tetrahydrothieno[3,2-c]pyridine-2-sulfonimidamide], 1000 to 5000 nM; that for `NS(=O)(=NC(=O)Nc1c2c(cc3c1CC3)CCC2)c1cc2c(s1)CCN[C@H]2C(F)F` (single isomer, unassigned) [Example 876, (R or S,4R)-4-(difluoromethyl)-N′-((2,4,5,6-tetrahydro-1H-cyclobuta[f]inden-3-yl)carbamoyl)-4,5,6,7-tetrahydrothieno[3,2-c]pyridine-2-sulfonimidamide], 40 to 200 nM.
The same measure, in the same setting: the result for `NS(=O)(=NC(=O)Nc1c2c(cc3c1CC3)CCC2)c1cc2c(s1)CCN[C@H]2C(F)F` (single isomer, unassigned) [Example 877, (S or R,4R)-4-(difluoromethyl)-N′-((2,4,5,6-tetrahydro-1H-cyclobuta[f]inden-3-yl)carbamoyl)-4,5,6,7-tetrahydrothieno[3,2-c]pyridine-2-sulfonimidamide] reads 1000 to 5000 nM.
